# From publication PMC8891364, “Synthesis, and docking studies of novel heterocycles incorporating the indazolylthiazole moiety as antimicrobial and anticancer agents” (Scientific Reports, 2022)
# Values joined by “and” are separate entries in the source; they are usually repeats but may differ in a detail not shown here. Equal entries are not always repeated.
# Assays:
# [1] = test system: Caco-2 cells; test: MTT antitumor assay, colon carcinoma cells; format: cell-based; settings: for IC50: Homo sapiens, Caco-2, 48 h; for SI Caco-2: ratio of IC50 of normal cells (HFB-4) versus IC50 of tumor cells
# Experimental: (§1) The human melanocytes (HFB-4) cells, hepatoma (HepG-2) cells, and colon carcinoma (Caco-2) cells were obtained from American Type Culture Collection (ATCC, USA). The cytotoxicity of the newly synthesized compounds (at various concentrations) was determined using the 3-[4, 5-dimethylthiazol]-2, 5-diphenyltetrazolium bromide method (MTT assay)[59] against HFB-4 cells (normal human melanocytes), HepG-2 cells (hepatoma), and Caco-2 cells (colon carcinoma). Normal and cancer cells (1.0 × 10^4) were cultured in sterile 96-well microplates, and incubated for 24 h in DMEM (Lonza, USA) supplemented with 10% fetal bovine serum (Gibco, USA) for HFB-4 and Caco-2 cells or in an RPMI-1640 medium (Lonza, USA) supplemented with 10% FBS for HepG-2 cells. After 24 h of incubation, different doses of the tested synthesized compounds ([…]) were added in triplicate to all cells and incubated for another 48 h in 5% CO2. After washing the cells 3 times with fresh media, to remove dead cells and debris, a solution of MTT (Sigma -Aldrich, 0.5 mg/mL) was added to each well and further incubated for 2–5 h at 37 °C. Afterward, the MTT solution was decanted and 200 µL of DMSO was added. The optical density was measured at 570 nm using a microplate reader (BMG LabTech, Germany), where the cells’ relative viability (%) was estimated using the following equation: viability of cells (%) = [A1 − A0/AU − A0] × 100, where A1 is the absorbance of the test compound, A0 is the absorbance of the blank, and AU is the absorbance of untreated cells (control).
# (§2) The antitumor activity of the synthesized compound was determined by calculating the IC50 value (half maximal inhibitory concentration) using Graph Pad Prism 6.0 software. The value of IC50 indicates the derivative concentration that causes 50% cell death, whereas the value of the selectivity index (SI), indicating the ratio of the IC50 value of normal cells versus the IC50 value of tumor cells, was also included as reported by[60],[61].
# [2] = test system: HepG-2 cells; test: MTT antitumor assay, hepatoma cells; format: cell-based, human; settings: for IC50: Homo sapiens, HepG2, 48 h; for SI HepG-2: ratio of IC50 of normal cells (HFB-4) versus IC50 of tumor cells
# Experimental: as §1, §2
# [3] = test system: Pseudomonas aeruginosa ATCC 27853; test: Antimicrobial microtiter-plate MIC assay; format: cell-based; settings: Pseudomonas aeruginosa, ATCC27853; 24 h, 37 °C
# Experimental: (§3) The antimicrobial activity of the newly synthesized compounds (2–9) was evaluated against three model pathogenic microorganisms as follows: Streptococcus mutans ATCC 25175 (Gram-positive bacterium); Pseudomonas aeruginosa ATCC 27853 (Gram-negative bacterium); and Candida albicans ATCC 10231 (fungi-like unicellular organism). After cultivating the three tested pathogens overnight in LB broth, 100 µL of each tested organism (10^6 CFU/mL) was added separately to 100 µL of the serially diluted test compounds (5–80 µg) in a 96-well tissue culture plate and incubated at 37 °C for 24 h. Eventually, microbial growth was measured at 600 nm, and the results are presented in the form of MIC (Table 4). Two antibacterial reference drugs, ampicillin and ciprofloxacin, and one antifungal drug, clotrimazole, were incorporated into the experiments.
# [4] = test system: Streptococcus mutans ATCC 25175; test: Antimicrobial microtiter-plate MIC assay; format: cell-based; settings: Streptococcus mutans, ATCC25175, 24 h, read-out: MIC Streptococcus mutant
# Experimental: as §3
# [5] = test system: Candida albicans ATCC 10231; test: Antimicrobial microtiter-plate MIC assay; format: cell-based; settings: Candida albicans, ATCC10231; 24 h, 37 °C
# Experimental: as §3
# [6] = test system: Caco-2 cells; test: Cell cycle arrest analysis by flow cytometry; format: cell-based, human; settings: 48 h, IC50 concentrations, vs untreated control
# Experimental: The cell cycle arrest of treated Caco-2 cells was evaluated through flow cytometry (Partec, Germany) in comparison with untreated cells and treated cells with 5-FU as a positive control[60],[62]. […] After washing the cells three times, the cells were fixed by adding 1 mL of 70% cold ethanol dropwise with a gentle vortex. Caco-2 cells were washed three times again with cold PBS and incubated in 1 mL of PBS containing 5 μg/mL RNase A (Sigma-Aldrich) for 1 h at 37 °C. Then 10 μL of PI (Sigma-Aldrich) was added to cells at a final concentration of 1 mg/mL in deionized water and left at 4 °C until analysis in the dark. The cell cycle of Caco-2 cells before and after treatment was analyzed by FACS using Cell Quist and Mod Fit software by reading at 488 nm.
# [7] = test system: HFB-4 cells; test: MTT cytotoxicity assay, normal human melanocytes; format: cell-based; settings: Melanocyte, 48 h
# Experimental: as §1, §2
# [8] = test system: Pseudomonas aeruginosa; test: Microbial-biofilm inhibition, tissue-culture plate technique (TCP); format: cell-based; settings: 25 µg/mL, 24 h
# Experimental: (§4) The activity of the newly synthesized compounds against microbial biofilm formation was estimated through the tissue-culture plate technique (TCP) as follows: the three above-mentioned pathogens, Streptococcus mutans, Pseudomonas aeruginosa, and Candida albicans were cultivated overnight in LB broth at 37 °C. Afterward, 200 µL of each diluted organism (10^6 CFU/mL) was inoculated separately (in triplicate) into 96-well tissue culture plates and incubated overnight at 37 °C. The free planktonic cells were removed, after the incubation period, by flipping the plate and washing each well three times with phosphate-buffered-saline (PBS), pH 7.1. To each well, 175 µL of fresh LB broth was added along with 25 µL of the tested compound (25 µg/mL final concentrations). The plates were reincubated at 37 °C for another 24 h, washed with PBS buffer pH 7.1 three times, and dried for 5 min at 50 °C. The formed biofilm was stained with crystal violet solution (0.1% w/v) for 5 min. The excess stain was decanted, and the stained biofilm was solubilized with 200 µL of glacial acetic acid (30% v/v), where the developed blue color was measured at 590 nm. The results are expressed as relative inhibition (%) compared to untreated groups (control). Controls were prepared by culturing the three pathogens on LB medium without any tested compounds.
# [9] = test system: Streptococcus mutans; test: as above; format: cell-based; settings: 25 µg/mL, 24 h
# Experimental: as §4
# [10] = test system: β-catenin gene; test: qRT-PCR gene expression in HepG-2 and Caco-2 cells; format: cell-based, human; settings: IC50 concentrations, 2 days
# Experimental: (§5) The effects of the potent antitumor derivatives (4, 6, and 8) on the expression level of some tumor regulating genes were elucidated through quantitative real-time PCR (qRT- PCR) and compared to 5-fluorouracil (5-FU) as a reference antitumor drug. Five genes were assessed, including the tumor oncogene (Bcl-2), tumor suppressor gene (p53), matrix metalloproteinase gene (MMP-9), vascular endothelial growth factor gene (VEGF), and beta-catenin protein gene (β-catenin), in HepG-2 and Caco-2 cells, before and after treatment for 2 days with IC50 concentrations for compounds 4, 6, and 8. Following the extraction of total RNA from the tested cells, using the Gene JET RNA Purification Kit (Thermo Scientific, USA), cDNA synthesis was performed according to the cDNA Synthesis Kit protocol (Thermo Scientific, USA). qRT PCR was performed using the SYBR green kit and specific primers (Forward/Reverse) as follows: 5′-[…]-3'/5'-TCG GTCTCCTAAAAGCAGGC-3′ for the Bcl-2 gene, 5′-TAACAGTTCCTGCATG GG CG GC-3′/5′-[…]-3′ for p53, 5'-CTGCGTATTTCCATT CATC-3'/5'-CCTTGGGTCAGGTTTAGAG-3' for the MMP-9 gene, 5'-GGCTTTACT GCTGTACCTCC-3'/5'-CAAATGCTTTCTCCGCTCT-3' for the VEGF gene, and 5'-CATATGCGGCTGCTG TTCTA-3'/5'-CCGAAAG CCGTTTCTTGTAG-3' for the β-catenin gene. The upregulation and/or downregulation of the expression of the tested genes in Caco-2 and HepG-2 cells was determined by using the equation 2^−ΔΔCT[60].
# [11] = test system: Bcl-2 gene; test: qRT-PCR gene expression in HepG-2 and Caco-2 cells; format: cell-based, human; settings: for gene expression of Bcl-2: HepG-2 and Caco-2 cells, IC50 concentrations, 2 days, compared to 5-FU and untreated cells; for downregulation of Bcl-2 expression, fold: compared to control cells
# Experimental: as §5
# [12] = test system: MMP-9 gene; test: qRT-PCR gene expression in HepG-2 and Caco-2 cells; format: cell-based, human; settings: IC50 concentrations, 2 days, compared to 5-FU and untreated cells
# Experimental: as §5
# [13] = test system: VEGF gene; test: qRT-PCR gene expression in HepG-2 and Caco-2 cells; format: cell-based, human; settings: IC50 concentrations, 2 days, compared to 5-FU and untreated cells
# Experimental: as §5
# [14] = test system: Candida albicans; test: Microbial-biofilm inhibition, tissue-culture plate technique (TCP); format: cell-based; settings: Candida albicans, 24 h, relative to untreated
# Experimental: as §4
Structure (SMILES),"IC50 ([1]; MTT, 48 h) [µg/mL]",SI Caco-2 [1],"IC50 ([2]; MTT, 48 h) [µg/mL]",SI HepG-2 [2],MIC [3] [µg/mL],MIC [4] [µg/mL],MIC [5] [µg/mL],apoptotic phase (sub-G1) population [6],synthesis (S) phase population [6],IC50 [7] [µg/mL],antibiofilm formation activity Streptococcus mutans (in words) [9],expression of the β-catenin gene [10],gene expression of Bcl-2 [11],"downregulation of Bcl-2 expression, fold [11]",gene expression of MMP-9 [12],gene expression of VEGF [13],also measured
"N#Cc1c(N)oc2nc(N3NC4=C(CCCC4)C3c3ccccc3)sc12 (centres unmarked) [Compound 4, 5-amino-2-(3-phenyl-1,3,4,5,6,7-hexahydro-2H-indazol-2-yl)furo[2,3-d] thiazole-6-carbonitrile]",6.18 ± 1.14,23 and 23.03 ± 0.24,7.88 ± 0.1,18.1 and 18.06 ± 0.19,60.8 ± 2.22,34.41 ± 0.237,48.9 ± 1.05,becomes detectable after treatment,decreased,142 ± 1.48,had antibiofilm formation activities,significantly suppressed,significantly downregulated,more than threefold,significantly downregulated,significantly downregulated,biofilm inhibition activity Pseudomonas aeruginosa (in words) [8]: high biofilm inhibition activity
"NNC(=O)c1c(N)sc2sc(N3NC4=C(CCCC4)C3c3ccccc3)nc12 (centres unmarked) [Compound 6, 5-amino-2-(3-phenyl-1,3,4,5,6,7-hexahydro-2H-indazol-2-yl)thieno[3,2-d] thiazole-6-carbohydrazide]",5.21 ± 0.22,25.6 and 25.59 ± 0.03,6.12 ± 0.19,21.8 and 21.75 ± 0.03,58.5 ± 2.27,39.58 ± 0.348,57.3 ± 1.32,becomes detectable after treatment,decreased,133 ± 4.18,,significantly suppressed,significantly downregulated,more than threefold,significantly downregulated,significantly downregulated,inhibition at 25 µg/mL [14]: 61%
"N#CCc1nn(N)c2nc(N3NC4=C(CCCC4)C3c3ccccc3)sc12 (centres unmarked) [Compound 8, 2-(1-amino-5-(3-phenyl-1,3,4,5,6,7-hexahydro-2H-indazol-2-yl)-1H-pyrazolo [3,4-d]thiazol-3-yl)acetonitrile]",~5.9,26.08 ± 0.30,~5.9,26.23 ± 0.30,53 ± 2.18,15.8 ± 0.205,56.2 ± 1.24,becomes detectable after treatment,decreased,154 ± 1.76,had antibiofilm formation activities,significantly suppressed,significantly downregulated,more than threefold,significantly downregulated,significantly downregulated,"IC50 Caco-2 ([1]; MTT, 48 h): 5.89 ± 0.38 µg/mL; SI Caco-2 ([1]; listed as Derivative 8): about 26; IC50 HepG-2 ([2]; MTT, 48 h): 5.86 ± 0.34 µg/mL; SI HepG-2 ([2]; listed as Derivative 8): about 26"
